# Assay results published in article PMC12441861, “Next-Generation Lipid Prodrugs Orally Deliver Tenofovir via Enhanced Chylomicron Incorporation” (ACS Pharmacology & Translational Science, 2025).
# Assays:
# [1] = Cytotoxicity, MTT assay; details: human
# Procedure: To measure cytotoxicity, HeLa-derived TZM-bl cells , were treated with serial dilutions of each drug, and viability was assessed after 48 h. Two methods were used: an ATP luminescence assay, which measures cellular ATP levels as an indicator of metabolic activity (compounds 8a–d), and an MTT assay, which evaluates cell viability via mitochondrial enzymatic activity (compounds 15b, 21a, and 21b).
# The TZM-bl cell line (BEI Resources, ARP-8129) was used to evaluate both cell viability and HIV pseudovirus infectivity reduction. Cytotoxicity in this cell line was measured via two methods. The first method, an ATP luminescence assay, was used for compounds 15a, 15b, 21a, and 21b as such: 6000 TZM-bl cells per well were seeded in a 96-well plate and incubated at 37 °C with 5% CO2 for 24 h. Compounds were prepared as serial dilutions (final concentrations of 1, 0.2, 0.04, 0.008, and 0.0016 μM) in complete DMEM with DEAE-Dextran at 40 μg/mL to mimic HIV infectivity conditions. Solutions were added to the cells and incubated for another 48 h. Viability was assessed using the Promega Cell Titer Glow (CTG) Assay (cat No. G9242) by adding a 50% PBS-CTG solution to each well and measuring luminescence, which correlates with ATP levels, on an Agilent BioTek Synergy HT reader. Cytotoxicity of compounds 8a–d was determined using a colorimetric assay based the conversion of MTT (3-(4,5-dimethylthiazol-2-yl)-2,5-diphenyltetrazolium bromide) to formazan as described previously. TZM-bl cells were plated into 96-well tissue culture plates 1 day prior to performing the MTT assay. A series of 10 3-fold dilutions of each compound was performed from a starting concentration of 10 mM and each dilution was tested for a reduction in cell viability according to the manufacturer’s instructions (CyQuant MTT Cell Viability Assay, ThermoFisher, V13154). Wells containing TZM-bl cells with media only were used as a control. Briefly, serial dilutions of each test compound were added to the plated TZM-bl cells. At 48 h, the media was removed and replaced with 100 mL of fresh culture medium. 10 mL of 12 mM MTT solution was added to each well and incubated at 37 °C for 4 h. 85 mL of supernatant was then removed from each well and replaced with 50 mL of DMSO. Following a 10 min incubation at 37 °C, the absorbance of each well was determined at 540 nm using a Biotek Synergy Neo2 multimode reader and Gen5 v3.02 software.
# [2] = tested on: HIV; details: HEK293T cells; ref previous study (Pribut et al. 2021); read-out: IC50 (antiviral activity, previous study); cited from earlier work
# [3] = tested on: Caco-2 cells; experiment: Control: release of membrane-associated prodrug into media after wash; format: in vitro ADME, human; details: 10 μM, 15 min at 37 °C, media at 0, 5 and 15 min postwash
# Procedure: After characterizing the impact of membrane dynamics on the packaging of ω-unfunctionalized prodrugs into CMs, we proceeded to screen the ω-CF3-functionalized BOG lipid prodrugs in our CM assay. All collections were done at the 20 h time point to allow full diffusion of prodrug out of the membrane. […] However, CM concentration strongly correlated with c Log D values (R ^2 = 0.89, Figure c), consistent with trends observed for ω-unfunctionalized prodrugs and highlighting the role of lipophilicity on CM incorporation. […] This is further supported by the 2.4-fold increase in CM concentration observed for 15a compared to TXL, where the only difference is the inclusion of the terminal CF3 group. […] Therefore, as an important control experiment, Caco-2 cells were incubated with 10 μM of TXL or compound 21a (n = 6 per group) in the presence of the lipid mixture for 15 min at 37 °C. After incubation, the cells were washed three times with PBS, and fresh drug-free growth media was added. Aliquots of the media were collected at 0, 5, and 15 min postwash. Samples were analyzed by LC-MS/MS for the presence of TXL and 21a.
# [4] = Release of parent TFV in mouse tissues after oral prodrug (fed state); details: 10 mg/kg oral prodrug
# Text: To further evaluate the in vivo performance of 21a, we measured the release of the parent drug, TFV, in plasma (Figure a), liver (Figure b), and lung tissues collected from our PK study (fed state), and compared these levels (Figure c) with TXL.
# Concentration–time profiles of parent TFV in (a) plasma and (b) liver of mice treated with either TXL or 21a (n = 3 biological replicates). (c) Summary of key TFV plasma and liver PK parameters following oral dose of TXL or 21a. Data represent the mean ± SEM.
Structure (SMILES),CC50 at 48 h [1] [µM],IC50 [2] [µM],prodrug concentration in media postwash [3],TFV levels (Cmax and AUC) in plasma and liver relative to 21a-treated mice [4]
"C[C@H](Cn1cnc2c(N)ncnc21)OCP(=O)(O)OCCCOCCCCCCCCCCCCCCCC(F)(F)F [15a, Ammonium[(1R)-2-(6-aminopurin-9-yl)-1-methyl-ethoxy]methyl-[3-(16,16,16-trifluorohexadecoxy)propoxy]phosphinate]",> 10,0.05,,
"CCCCCCCCCCCCCCCCOCCCOP(=O)(O)CO[C@H](C)Cn1cnc2c(N)ncnc21 [TXL, hexadecyloxypropyl (HDP)-TFV, reference compound]",> 10,,below the limit of detection,higher levels of TFV
"C[C@H](Cn1cnc2c(N)ncnc21)OCP(=O)(O)OC[C@H](COCCCCCCCCCCCCCCCC(F)(F)F)OCc1ccccc1 [21a, Ammonium[(1R)-2-(6-Aminopurin-9-yl)-1-methyl-ethoxy]methyl-[(2S)-2-benzyloxy-3-(16,16,16-trifluorohexadecoxy)propoxy]phosphinate]",,,below the limit of detection,
